Data set [1] can be described thus: serum level of Lisofylline in hemorrhaged mice. The format is in vivo. Conditions: male, mouse, intravenous, hemorrhaged Balb/C mice, 5 minutes after 100 mg/kg Lisofylline given with resuscitation blood, read-out: serum levels of Lisofylline. On the procedure:
(§1) This example illustrates a study of Lisofylline in a murine hemorrhage and resuscitation model. Male Balb/C mice, 8-12 weeks of age, were obtained from Harlan-Sprague Dawley (Indianapolis, Ind.). The animals were kept on a 12 hour light/dark cycle with free access to food and water. With this model, 30% of the calculated blood volume (approximately 0.55 ml for a 20 gram mouse) was withdrawn from a methoxyflurane anesthetized mouse by cardiac puncture over a 60-second period. The blood was collected into a heparinized syringe (5 units heparin), kept at 37° C. for one hour, then reinfused into the mouse through a retroorbital plexus injection. Using this method, one is able to resuscitate all hemorrhaged mice without complication. The total period of methoxyflurane anesthesia is less than 2 minutes in all cases. The mortality rate with this hemorrhage protocol is approximately 12%, with all deaths occurring over the 24 hours post hemorrhage, and most deaths occurring within the one hour post hemorrhage.
Mice were treated with 100 mg/kg Lisofylline in 0.2 ml PBS and given initially i.v., by retroorbital injection, then i.p. every 8 hours for a total of 9 doses. In hemorrhaged mice, the Lisofylline in PBS was added to the shed blood, and then given retroorbitally with the blood during the resuscitation phase. […]

The next data set has as its system human neutrophils. In words: neutrophil superoxide anion production (cytochrome c reduction). The format is cell-based. An excerpt:
Human recombinant interleukin-1α (IL-1) was obtained from Hoffmann-LaRoche, Inc. (Nutley, N.J.), frozen inaliquots and thawed daily for use. Ketamine hydrochloride was obtained from Parke-Davis (Morris Plains, N.J.), xylazine from Haver (New York, N.J.), ^125I labeled bovine serum albumin (BSA) from ICN Radiochemicals (Irvine, Calif.), and heparin sodium from Elkins-Sinn, Inc. (Cherry Hill, N.J.). All other reagents were purchased from Sigma Chemical Co. (St. Louis, Mo.). Neutrophils were purified from human blood by well described methods. Venous blood was anticoagulated with heparin and the cellular elements were separated from platelet-rich plasma by centrifugation. Cell pellets were resuspended in platelet-poor plasma and diluted 1:4 with 6% dextran (Pharmacia Fine Chemicals, Piscataway, N.J.) in saline. Red cells were separated from leukocytes by sedimentation. Leukocyte-rich supernatants were then aspirated, underlain with Ficoll-Hypaque (Pharmacia Fine Chemicals), and centrifuged at 275×g to separate neutrophils and monocytes. Sedimented neutrophils were resuspended in Hank's balanced salt solution (HBSS). These preparations contained 94 to 96% neutrophils and 4 to 6% monocytes. All values were compared by analysis of variance and corrected by post hoc Student t tests for differences between groups. A p value of <0.05 was considered significant.
Release of superoxide anion by neutrophils was determined spectrophotometrically by measuring superoxide dismutase (SOD) inhibitable reduction of horse heart ferricytochrome C (Sigma Chemical Co., St. Louis, Mo.). Briefly, neutrophils (2×10^6) were placed in tubes containing HBSS (sufficient quantity to 2.0 ml), pooled human serum (1%), and SOD (2.98 mg) with and without Lisofylline. These mixtures were divided in half, and one part was incubated at 37° C. and one part at 4° C. After incubation, reaction mixtures were kept at 4° C. and centrifuged at 800×g for 15 min. Absorbance for paired supernatants was measured at 550 nm using a spectrophotometer (Model 35; Beckman Instruments, Inc., Fullerton, Calif.), averaged, and expressed at nanomoles of SOD-inhibitable cytochrome C reduced/20 min. In some experiments, neutrophils were incubated with PMA.
Neutrophil chemotactic activity was determined by Boyden chamber assay and quantitated as the number of migrating PMN/5HPF using zymosan-activated serum (ZAS) as the chemoattractant (Repine et al., J. Reticuloendo. Soc. 24:217, 1978). Neutrophil adherence was assessed by quantitating the percentage of neutrophils adhering to nylon fibers following addition of phorbol myristate acetate (PMA 10-^6M, Sigma) (Rasp et al., J. Reticuloendo. Soc. 25:101, 1979). Neutrophil superoxide production was determined by quantitating superoxide dismutase inhibitable reduction of cytochrome c in response to PMA (10^−6 M) (Berger et al., J. Infectious Dis. 149:413, 1984).

The next data set has as its system IFN-γ. In words: IFN-γ sandwich ELISA of BAL supernatants and plasma. The class given is in vivo, Balb/C mice. The protocol: as §1
Mice were treated with 100 mg/kg Lisofylline in 0.2 ml PBS and given initially i.v., by retroorbital injection, then i.p. every 8 hours for a total of 9 doses. In hemorrhaged mice, the Lisofylline in PBS was added to the shed blood, and then given retroorbitally with the blood during the resuscitation phase. In hemorrhaged Balb/C mice (n=3), sacrificed by exsanguination 5 minutes after receiving Lisofylline with the blood used for resuscitation, serum levels of Lisofylline were 44±6 μg/ml.
Three days following hemorrhage and resuscitation or the initiation of treatment with Lisofylline therapy in normal treated animals, mice were anesthetized with methoxyflurane and sacrificed by exsanguination through cardiac puncture into a heparinized (5 U) syringe. Normal mice, not subjected to hemorrhage/resuscitation or to treatment with Lisofylline, were included. Bronchoalveolar lavage (BAL) specimens, using 1.0 ml PBS injected and aspirated three times into the trachea and lungs, were obtained. Cells contained in the BAL were collected by centrifugation of BAL specimens. […] As determined by cytology, there was less than 3% contamination of alveolar macrophages with lymphocytes, neutrophils, or other mononuclear cell populations when BAL specimens are collected in normal Balb/C mice, but approximately 11±2% of isolated cells are neutrophils in mice subjected 3 days previously to 30% blood volume hemorrhage with resuscitation one hour later. […]
TNFα and IFN-γconcentrations in BAL supernatants and plasma were determined with sandwich ELISA assays using the monoclonal antibody pairs (i.e., unbiotinylated or biotinylated) MP6-XT3 for TNFα and XMG1.2 for IFN-γ(Pharmingen San Diego, Calif.). […]
Background: An ELISA detects its analyte on a solid surface through an enzyme-linked reagent.

[2] abbreviates: hemorrhaged/resuscitated mice treated for 72 hours.
The mark [3] stands for this setting: normal, unhemorrhaged mice treated.

Each structure is given as a SMILES string.

Take `C[C@@H](O)CCCCn1c(=O)c2c(ncn2C)n(C)c1=O` [Lisofylline, 1-R-(5-hydroxyhexyl)-3,7-dimethylxanthine]: the concentration at 5 min in data set [1] was found to be 44000 ± 6000 ng/mL. Further, the “Neutrophil Superoxide Production in vitro” value is on record as 9.2 ± 7.8 (4) μM cyto c reduced/30 min in the data set with human neutrophils (Neutrophils + PMA + Lisofylline 0.7 μM), 82.3 ± 5.2 (4) μM cyto c reduced/30 min in the data set on human neutrophils (Neutrophils + PMA + Lisofylline 7 μM), 80.6 ± 5.2 (4) μM cyto c reduced/30 min in the data set with human neutrophils (Neutrophils + PMA + Lisofylline 70 μM) and 92.0 ± 1.1 (4) μM cyto c reduced/30 min in the data set on human neutrophils (Neutrophils + PMA + Lisofylline 700 μM). The “neutrophil superoxide anion generation” value in the data set with human neutrophils (PMA 10^-6 M, in vitro, whether reduced) is reported as “not”. For the same molecule, the “IFN-γ levels in BAL supernatants” value in the data set on IFN-γ (setting [2]) was found to be 2 ± 2 pg/mL. In the data set on IFN-γ (setting [2]), the “IFN-γ levels in plasma” value is 173 ± 120 pg/mL. In the data set on IFN-γ (setting [3]), the “IFN-γ content of BAL supernatants” value came out at 16 ± 16 pg/mL. In the data set with IFN-γ (setting [3]), this molecule gave an IFN-γ in plasma of 66 ± 48 pg/mL.

The values are drawn from patent publication US6638938B1, “Method for preventing tissue injury from hypoxia” (Cell Therapeutics, Inc., priority 1993, dated 2003).
